{"source": "patent US10175256B2", "about": "“Compositions and methods utilizing lysophosphatidylcholine scaffolds” (National University Of Singapore, priority 2013, dated 2019)", "biological_target": "T1, mouse Mfsd2a (Mus musculus, UniProt Q9DA75)", "T1 construct": "expressed in transfected cells; host or cells: HEK293", "T1 sequence (Q9DA75 1-534)": "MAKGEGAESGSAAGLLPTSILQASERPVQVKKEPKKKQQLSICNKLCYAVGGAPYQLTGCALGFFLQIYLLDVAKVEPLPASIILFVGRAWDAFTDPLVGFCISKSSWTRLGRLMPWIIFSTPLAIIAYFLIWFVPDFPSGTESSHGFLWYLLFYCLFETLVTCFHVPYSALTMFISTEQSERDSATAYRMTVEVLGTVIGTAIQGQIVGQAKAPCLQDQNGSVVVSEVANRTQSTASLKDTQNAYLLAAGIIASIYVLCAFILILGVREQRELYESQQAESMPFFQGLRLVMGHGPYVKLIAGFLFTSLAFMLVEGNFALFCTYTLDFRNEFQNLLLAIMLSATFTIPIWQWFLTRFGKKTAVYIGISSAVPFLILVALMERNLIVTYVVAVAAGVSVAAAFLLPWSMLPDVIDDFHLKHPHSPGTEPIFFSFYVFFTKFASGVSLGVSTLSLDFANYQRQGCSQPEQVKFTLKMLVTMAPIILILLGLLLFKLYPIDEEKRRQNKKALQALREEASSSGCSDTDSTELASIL", "assay": "Cell-based free fatty acid transport/uptake in Mfsd2a expressing HEK293 cells (mass spectrometry, TLC; Table 1)", "settings": "Mfsd2a HEK293 cells, 100 uM fatty acid/BSA overnight", "how_it_was_run": "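HEK293 cells expressing mouse Mfsd2a, or mock controls, were incubated overnight with 100 μM BSA-complexed fatty acids. Lipids were extracted in hexane:isopropanol (3:2) and phospholipid species quantified by HPLC-MS/MS against spiked internal standards. For TLC, cells received 100 μM [^14C]-oleate overnight, and phospholipids and neutral lipids were resolved.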", "note": "“And” between values parts separate entries of the source, which are not always exact repeats. Equal entries are not always repeated.", "data": [{"smiles": "CCCCCCCCCCCCCCCC(=O)O", "note": "[Palmitic acid]", "values": [{"measurement": "PE34p:2 in total phospholipid", "value": "0.2893 mol percent and 0.2458 mol percent and 0.4295 mol percent"}, {"measurement": "PE36:1 in total phospholipid", "value": "1.713 mol percent and 1.465 mol percent and 1.861 mol percent"}, {"measurement": "PE36:2 in total phospholipid", "value": "2.152 mol percent and 2.192 mol percent and 2.267 mol percent"}, {"measurement": "PE36:3 in total phospholipid", "value": "0.4629 mol percent and 0.5112 mol percent and 0.4773 mol percent"}, {"measurement": "PE36:4 in total phospholipid", "value": "0.3125 mol percent and 0.2556 mol percent and 0.346 mol percent"}, {"measurement": "PE36p:1 in total phospholipid", "value": "0.5555 mol percent and 0.4227 mol percent and 0.5608 mol percent"}, {"measurement": "PE36p:2 in total phospholipid", "value": "0.7869 mol percent and 0.5996 mol percent and 0.6801 mol percent"}, {"measurement": "PE36p:3 in total phospholipid", "value": "0.8448 mol percent and 0.8061 mol percent and 1.169 mol percent"}, {"measurement": "PE36p:4 in total phospholipid", "value": "1.273 mol percent and 1.14 mol percent and 1.432 mol percent"}, {"measurement": "PE38:1 in total phospholipid", "value": "0.4976 mol percent and 0.3342 mol percent and 0.5727 mol percent"}, {"measurement": "PE38:2 in total phospholipid", "value": "0.3125 mol percent and 0.3342 mol percent and 0.3579 mol percent"}, {"measurement": "PE38:3 in total phospholipid", "value": "0.6133 mol percent and 0.6685 mol percent and 0.6204 mol percent"}, {"measurement": "PE38:4 in total phospholipid", "value": "0.9026 mol percent and 0.9732 mol percent and 1.301 mol percent"}, {"measurement": "PE38:5 in total phospholipid", "value": "0.486 mol percent and 0.4227 mol percent and 0.5488 mol percent"}, {"measurement": "PE38:6 in total phospholipid", "value": "0.2083 mol percent and 0.1081 mol percent and 0.1432 mol percent"}, {"measurement": "PE38:7 in total phospholipid", "value": "0.08101 mol percent and 0.07864 mol percent and 0.04773 mol percent"}, {"measurement": "PE38p:0 in total phospholipid", "value": "0.1273 mol percent and 0.118 mol percent and 0.1074 mol percent"}, {"measurement": "PE38p:1 in total phospholipid", "value": "0.1504 mol percent and 0.1769 mol percent and 0.2744 mol percent"}, {"measurement": "PE38p:2 in total phospholipid", "value": "0.3935 mol percent and 0.2359 mol percent and 0.3937 mol percent"}, {"measurement": "PE38p:3 in total phospholipid", "value": "0.9721 mol percent and 0.8651 mol percent and 0.9426 mol percent"}, {"measurement": "PE38p:4 in total phospholipid", "value": "0.9142 mol percent and 0.9437 mol percent and 1.086 mol percent"}, {"measurement": "PE38p:5 in total phospholipid", "value": "0.9489 mol percent and 0.7569 mol percent and 0.8591 mol percent"}, {"measurement": "PE38p:6 in total phospholipid", "value": "1.215 mol percent and 1.298 mol percent and 1.348 mol percent"}, {"measurement": "PE40:3 in total phospholipid", "value": "0.08101 mol percent and 0.0983 mol percent and 0.1074 mol percent"}, {"measurement": "PE40:4 in total phospholipid", "value": "0.1157 mol percent and 0.118 mol percent and 0.1909 mol percent"}, {"measurement": "PE40:5 in total phospholipid", "value": "0.1504 mol percent and 0.1868 mol percent and 0.1909 mol percent"}, {"measurement": "PE40:6 in total phospholipid", "value": "0.4282 mol percent and 0.3539 mol percent and 0.3699 mol percent"}, {"measurement": "PE40p:4 in total phospholipid", "value": "0.1736 mol percent and 0.1769 mol percent and 0.3102 mol percent"}, {"measurement": "PE40p:5 in total phospholipid", "value": "0.2893 mol percent and 0.2064 mol percent and 0.3341 mol percent"}, {"measurement": "PE40p:6 in total phospholipid", "value": "0.6018 mol percent and 0.6095 mol percent and 0.4892 mol percent"}, {"measurement": "PE42:7 in total phospholipid", "value": "0.06943 mol percent and 0.05898 mol percent and 0.09545 mol percent"}, {"measurement": "PE42p:4 in total phospholipid", "value": "0.09258 mol percent and 0.1081 mol percent and 0.1074 mol percent"}, {"measurement": "PI 32:1 in total phospholipid", "value": "0.01515 mol percent and 0.01528 mol percent and 0.0154 mol percent"}, {"measurement": "PI 32:2 in total phospholipid", "value": "0.002439 mol percent and 0.002103 mol percent and 0.001294 mol percent"}, {"measurement": "PI 34:1 in total phospholipid", "value": "0.1103 mol percent and 0.114 mol percent and 0.1029 mol percent"}, {"measurement": "PI 34:2 in total phospholipid", "value": "0.0629 mol percent and 0.06982 mol percent and 0.06458 mol percent"}, {"measurement": "PI 36:1 in total phospholipid", "value": "0.1503 mol percent and 0.1538 mol percent and 0.1543 mol percent"}, {"measurement": "PI 36:2 in total phospholipid", "value": "0.3719 mol percent and 0.3721 mol percent and 0.3402 mol percent"}, {"measurement": "PI 36:3 in total phospholipid", "value": "0.1684 mol percent and 0.1865 mol percent and 0.158 mol percent"}, {"measurement": "PI 36:4 in total phospholipid", "value": "0.03864 mol percent and 0.0429 mol percent and 0.03921 mol percent"}, {"measurement": "PI 38:2 in total phospholipid", "value": "0.3564 mol percent and 0.36 mol percent and 0.319 mol percent"}, {"measurement": "PI 38:3 in total phospholipid", "value": "1.005 mol percent and 1.022 mol percent and 0.9636 mol percent"}, {"measurement": "PI 38:4 in total phospholipid", "value": "0.3607 mol percent and 0.3811 mol percent and 0.3385 mol percent"}, {"measurement": "PI 38:5 in total phospholipid", "value": "0.05186 mol percent and 0.04823 mol percent and 0.04943 mol percent"}, {"measurement": "PI 38:6 in total phospholipid", "value": "0.006419 mol percent and 0.006589 mol percent and 0.006082 mol percent"}, {"measurement": "PI 40:3 in total phospholipid", "value": "0.02721 mol percent and 0.02636 mol percent and 0.02342 mol percent"}, {"measurement": "PI 40:4 in total phospholipid", "value": "0.01374 mol percent and 0.0136 mol percent and 0.01449 mol percent"}, {"measurement": "PI 40:5 in total phospholipid", "value": "0.006419 mol percent and 0.00673 mol percent and 0.006341 mol percent"}, {"measurement": "PI 40:6 in total phospholipid", "value": "0.008088 mol percent and 0.005328 mol percent and 0.005047 mol percent"}, {"measurement": "PS(sum) in total phospholipid", "value": "2.6184 mol percent and 2.721 mol percent and 2.696 mol percent"}, {"measurement": "PS:34:1 in total phospholipid", "value": "0.4034 mol percent and 0.439 mol percent and 0.4315 mol percent"}, {"measurement": "PS:34:2 in total phospholipid", "value": "0.04042 mol percent and 0.03854 mol percent and 0.04968 mol percent"}, {"measurement": "PS:36:1 in total phospholipid", "value": "1.063 mol percent and 1.166 mol percent and 1.107 mol percent"}, {"measurement": "PS:36:2 in total phospholipid", "value": "0.3989 mol percent and 0.3832 mol percent and 0.387 mol percent"}, {"measurement": "PS:36:3 in total phospholipid", "value": "0.02599 mol percent and 0.02171 mol percent and 0.02615 mol percent"}, {"measurement": "PS:36:4 in total phospholipid", "value": "0.004537 mol percent and 0.005316 mol percent and 0.006102 mol percent"}, {"measurement": "PS:38:2 in total phospholipid", "value": "0.2194 mol percent and 0.2087 mol percent and 0.231 mol percent"}, {"measurement": "PS:38:3 in total phospholipid", "value": "0.1497 mol percent and 0.1471 mol percent and 0.1469 mol percent"}, {"measurement": "PS:38:4 in total phospholipid", "value": "0.05651 mol percent and 0.07531 mol percent and 0.06102 mol percent"}, {"measurement": "PS:38:5 in total phospholipid", "value": "0.007425 mol percent and 0.01063 mol percent and 0.01438 mol percent"}, {"measurement": "PS:40:4 in total phospholipid", "value": "0.07342 mol percent and 0.05892 mol percent and 0.05971 mol percent"}, {"measurement": "PS:40:5 in total phospholipid", "value": "0.04908 mol percent and 0.05626 mol percent and 0.06189 mol percent"}, {"measurement": "PS:40:6 in total phospholipid", "value": "0.1089 mol percent and 0.09746 mol percent and 0.1011 mol percent"}, {"measurement": "PS:40:7 in total phospholipid", "value": "0.01732 mol percent and 0.0124 mol percent and 0.01264 mol percent"}, {"measurement": "Total PC + lysoPC in total phospholipid", "value": "67.6 mol percent and 68.89 mol percent and 64.689 mol percent"}, {"measurement": "Total PE + lysoPE in total phospholipid", "value": "26.98 mol percent and 25.52 mol percent and 29.98 mol percent"}, {"measurement": "Total PI + lysoPI in total phospholipid", "value": "2.796 mol percent and 2.866 mol percent and 2.638 mol percent"}]}]}
